Results published in paper PMC12562668, “Targeting NFAT2 for Reversing the P-gp-Mediated Multidrug Resistance to Paclitaxel by Manidipine” (Cancers, 2025).

Key:
[1] = molecular target: T1, NFAT2 (Homo sapiens, UniProt O95644); experiment: DARTS in A549/T cell lysate with NFAT2 immunoblot; type: cell-based
T1 construct: gene NFATC1
T1 sequence (O95644 1-943): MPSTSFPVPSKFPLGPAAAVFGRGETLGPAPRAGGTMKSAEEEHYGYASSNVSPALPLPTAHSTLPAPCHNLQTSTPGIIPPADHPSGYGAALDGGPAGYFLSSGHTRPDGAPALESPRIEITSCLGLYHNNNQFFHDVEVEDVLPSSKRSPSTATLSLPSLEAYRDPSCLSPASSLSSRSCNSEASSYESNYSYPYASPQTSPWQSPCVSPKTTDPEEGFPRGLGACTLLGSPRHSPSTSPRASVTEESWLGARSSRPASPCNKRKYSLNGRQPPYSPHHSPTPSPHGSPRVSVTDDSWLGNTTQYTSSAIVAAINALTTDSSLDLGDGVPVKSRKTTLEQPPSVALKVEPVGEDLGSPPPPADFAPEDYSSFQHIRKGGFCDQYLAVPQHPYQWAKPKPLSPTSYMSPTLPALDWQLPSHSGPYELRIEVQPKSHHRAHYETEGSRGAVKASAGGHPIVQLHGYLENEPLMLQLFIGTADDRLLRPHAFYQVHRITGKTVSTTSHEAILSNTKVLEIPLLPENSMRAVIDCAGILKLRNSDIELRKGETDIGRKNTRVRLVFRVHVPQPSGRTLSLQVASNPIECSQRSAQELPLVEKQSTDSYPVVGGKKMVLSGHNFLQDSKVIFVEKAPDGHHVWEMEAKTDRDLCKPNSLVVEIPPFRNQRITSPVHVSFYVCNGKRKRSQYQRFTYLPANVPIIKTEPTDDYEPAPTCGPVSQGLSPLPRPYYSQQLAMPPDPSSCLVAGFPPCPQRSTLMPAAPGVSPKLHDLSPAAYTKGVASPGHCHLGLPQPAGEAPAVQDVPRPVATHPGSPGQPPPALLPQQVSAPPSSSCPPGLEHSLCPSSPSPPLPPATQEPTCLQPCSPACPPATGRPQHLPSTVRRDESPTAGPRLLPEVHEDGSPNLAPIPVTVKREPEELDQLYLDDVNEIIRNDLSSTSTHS

[2] = molecular target: T2, P-glycoprotein (P-gp) (Homo sapiens, UniProt P08183); experiment: Pgp-Glo P-gp ATPase assay: stimulation of basal activity; also inhibition of verapamil-stimulated activity; type: biochemical
T2 construct: gene ABCB1
T2 sequence (P08183 whole entry): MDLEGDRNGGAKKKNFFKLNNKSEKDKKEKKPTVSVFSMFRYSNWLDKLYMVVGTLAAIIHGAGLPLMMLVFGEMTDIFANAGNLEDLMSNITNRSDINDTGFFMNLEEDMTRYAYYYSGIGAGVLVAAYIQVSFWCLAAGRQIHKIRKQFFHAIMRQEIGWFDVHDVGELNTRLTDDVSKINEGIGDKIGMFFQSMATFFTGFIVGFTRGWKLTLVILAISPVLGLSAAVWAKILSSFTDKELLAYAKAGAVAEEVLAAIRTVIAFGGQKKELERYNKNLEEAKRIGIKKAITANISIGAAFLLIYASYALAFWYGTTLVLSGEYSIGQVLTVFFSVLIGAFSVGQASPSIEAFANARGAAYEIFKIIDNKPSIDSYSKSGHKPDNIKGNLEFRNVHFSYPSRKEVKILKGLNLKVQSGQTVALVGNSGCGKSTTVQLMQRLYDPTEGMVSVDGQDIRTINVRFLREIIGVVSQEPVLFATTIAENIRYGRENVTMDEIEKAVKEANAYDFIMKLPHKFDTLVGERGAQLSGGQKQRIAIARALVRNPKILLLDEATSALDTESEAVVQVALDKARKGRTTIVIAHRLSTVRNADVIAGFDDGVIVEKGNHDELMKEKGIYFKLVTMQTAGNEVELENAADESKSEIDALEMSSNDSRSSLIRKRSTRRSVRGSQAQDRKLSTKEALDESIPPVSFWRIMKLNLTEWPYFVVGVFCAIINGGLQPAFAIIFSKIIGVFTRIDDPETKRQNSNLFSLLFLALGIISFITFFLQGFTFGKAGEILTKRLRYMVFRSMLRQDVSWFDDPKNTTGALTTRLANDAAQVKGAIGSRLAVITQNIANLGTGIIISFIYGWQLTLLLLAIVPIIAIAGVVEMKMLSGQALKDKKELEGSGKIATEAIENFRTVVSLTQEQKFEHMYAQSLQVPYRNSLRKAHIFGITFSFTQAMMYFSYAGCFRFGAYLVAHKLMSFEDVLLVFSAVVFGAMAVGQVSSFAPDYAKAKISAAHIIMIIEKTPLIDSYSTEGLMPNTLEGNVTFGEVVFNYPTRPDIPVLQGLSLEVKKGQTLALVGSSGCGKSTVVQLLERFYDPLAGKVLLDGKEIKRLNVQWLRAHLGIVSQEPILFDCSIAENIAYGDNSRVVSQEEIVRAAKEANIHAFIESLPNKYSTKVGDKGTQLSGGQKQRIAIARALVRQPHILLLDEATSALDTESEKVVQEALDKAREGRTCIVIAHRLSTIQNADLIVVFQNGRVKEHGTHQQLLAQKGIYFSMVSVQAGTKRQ

`COC(=O)C1=C(C)NC(C)=C(C(=O)OCCN2CCN(C(c3ccccc3)c3ccccc3)CC2)C1c1cccc([N+](=O)[O-])c1` (centres unmarked) [MA, manidipine] was tested, and the “DARTS in A549/T cell lysate with NFAT2 immunoblot” value [1] was “MA effectively protected the NFAT2 protein from proteolysis (Figure 7F,G), thereby indicating that MA is a ligand of NFAT2” and the EC50 [2] was 4.16 µM.
